Like-named read-outs stand apart in the source and are kept apart here.
Experiments:
TNF and IFN-γ = assay: Organ inflammatory cytokines by ELISA after HSCT; conditions: day +14
Method: (A, B) B6D2 mice were lethally irradiated on transplant day −1. On day 0 recipients were administered 3×10^6 TCD B6 BM cells +/−4×10^6 B6 Tcons. Donor TCD BM cells, donor Tcons, both cell populations, or neither were incubated ex vivo with cosalane at 15 μg/ml for one hour prior to transplant. Those cells not treated with cosalane were incubated with an equal volume of DMSO vehicle. Mice were then followed for survival and scored for aGVHD. N=2 BM only. N=5 for all other treatment groups. […] (C, D) B6D2 mice were lethally irradiated on transplant day −1. On day 0 recipients were administered 3×10^6 TCD eGFP^− B6 BM cells plus 4×10^6 eGFP^+ B6 Tcons. Donor Tcons were incubated ex vivo with DMSO vehicle or cosalane diluted in normal saline at 15 μg/ml. The cells were then mixed with untreated TCD B6 BM cells and administered immediately to recipient mice by tail vein injection. Recipient mice were subsequently killed on day +7 (C) or day +14 (D). Lymphoid organs (left panels) and aGVHD target organs (right panels) were subsequently harvested and homogenized. Total eGFP levels were then determined using an anti-eGFP ELISA. N=7 per treatment group. […] (E, F) B6D2 mice were transplanted as in (C, D) and their organs removed and homogenized on day +7 (E) or day +14 (F). Total IFN-y (left panels) and TNF (right panels) was then determined by ELISA. N=7 per treatment group.

B6 Tcons = assay: Tcon proliferation assay
Method: (A) B6 Tcons were purified and incubated with increasing concentrations of cosalane or equal volumes of DMSO vehicle in normal saline for one hour at 37° C. The cells were then washed and cultured on 24 well plates pre-coated with anti-CD3 and anti-CD28 antibody in the presence of supplemental IL-2 for 72 hours. The number of cells per well were then quantified.
Tcon proliferation assay: Purified CD25^− B6 Tcons were incubated with cosalane at the indicated concentrations or an equal volume of DMSO vehicle for one hour at 37° C. The cells were then washed and cultured on 24-well plates previously incubated overnight with anti-CD3 and anti-CD28 antibody at 10 μg/ml. The cells were cultured for 72 hours in complete media supplemented with murine interleukin-2 at 100 IUs/ml and then counted using a hemacytometer.
Purified B6 Tcons were isolated as before and incubated with cosalane at increasing concentrations ranging from 10 μg/ml (13 μM—the concentration used for the B6 into B6D2 survival experiment described in FIGS. 3D and 3E) to 30 μg/ml (39 μM) or an equal volume of DMSO diluted in normal saline. The cells were then washed, placed on 24 well plates pre-coated with anti-CD3 and anti-CD28 immunoglobulin, and cultured for 72 hours in media containing supplemental IL-2.

[1] = test system: herpes simplex 1 and 2 and human cytomegalovirus; conditions: cited from earlier work
[2] = test system: CCR7-/- B6 into BALB/c aGVHD model; assay: aGVHD induced with CCR7-/- B6 Tcons into BALB/c
Method: (A, B) BALB/c mice were lethally irradiated on transplant day −1. On day 0 recipients were administered 5×10^6 TCD B6 BM cells +/−3×10^6 CCR7^−/− B6 Tcons. Donor Tcons were incubated ex vivo with DMSO vehicle or cosalane diluted in normal saline at 15 μg/ml. The cells were then mixed with untreated TCD B6 BM cells and administered immediately to recipient mice by tail vein injection. Mice were then followed for survival and scored for aGVHD. N=2 BM only. N=6 for all other treatment groups. […] (C, D) BALB/c mice were transplanted as in A, B. Donor CCR7^−/− B6 Tcons, however, were incubated ex vivo with DMSO vehicle or cosalane diluted in normal saline at 30 μg/ml. N=2 BM only. N=9 for all other treatment groups.
As a result, we repeated our CCR7^−/− B6 into BALB/c transplant but pre-incubated the donor Tcons with an identical cosalane strength of 30 μg/ml.

serum albumin = serum albumin (Homo sapiens, UniProt P02768); conditions: cited from earlier work
serum albumin, sequence (P02768 25-609): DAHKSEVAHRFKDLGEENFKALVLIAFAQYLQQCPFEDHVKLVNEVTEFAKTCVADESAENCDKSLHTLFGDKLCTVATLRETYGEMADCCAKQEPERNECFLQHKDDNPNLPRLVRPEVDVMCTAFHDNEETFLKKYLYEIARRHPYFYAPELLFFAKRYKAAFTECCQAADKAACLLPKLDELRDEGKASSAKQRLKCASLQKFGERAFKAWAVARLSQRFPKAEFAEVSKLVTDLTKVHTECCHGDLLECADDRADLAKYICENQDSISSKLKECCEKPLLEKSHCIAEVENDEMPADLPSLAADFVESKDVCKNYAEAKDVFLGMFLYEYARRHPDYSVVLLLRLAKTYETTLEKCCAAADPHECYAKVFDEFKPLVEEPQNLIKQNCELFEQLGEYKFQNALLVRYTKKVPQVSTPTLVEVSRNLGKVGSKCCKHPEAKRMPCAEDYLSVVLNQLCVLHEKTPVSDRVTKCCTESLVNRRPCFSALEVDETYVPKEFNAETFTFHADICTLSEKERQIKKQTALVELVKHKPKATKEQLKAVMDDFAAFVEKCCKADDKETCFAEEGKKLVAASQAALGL

Cytotoxicity (Table 1) = assay type: cell-based
Description: Perhaps the most important goal of HSCT research is to separate the beneficial anti-tumor effects mediated by donor T cells from the deleterious GVHD responses that they are also capable of producing. […] Unfortunately, there were no drugs or therapeutic antibodies available for clinical use. As a result, we pursued our high throughput screening (HTS) effort to identify novel small molecule antagonists with anti-CCR7 activity. The initial drug discovery process identified cosalane as a CCR7 antagonist. A substantial amount of work has subsequently been done with the compound in an effort to prevent acute graft-versus-host disease in mouse bone marrow transplant models.

CCR7 [3] = molecular target: T1, CCR7 (Homo sapiens, UniProt P32248); assay: HTS primary reporter assay, human CCR7; assay type: cell-based
T1 sequence (P32248 25-378): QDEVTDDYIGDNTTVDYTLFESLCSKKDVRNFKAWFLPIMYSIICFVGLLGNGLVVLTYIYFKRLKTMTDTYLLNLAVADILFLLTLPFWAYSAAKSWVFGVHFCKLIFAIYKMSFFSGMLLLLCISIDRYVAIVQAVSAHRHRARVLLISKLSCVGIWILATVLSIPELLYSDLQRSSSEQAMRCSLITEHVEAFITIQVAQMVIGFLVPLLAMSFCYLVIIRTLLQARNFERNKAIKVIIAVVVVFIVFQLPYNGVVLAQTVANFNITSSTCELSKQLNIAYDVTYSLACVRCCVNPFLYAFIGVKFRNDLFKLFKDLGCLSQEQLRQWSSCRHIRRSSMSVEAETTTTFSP

[4] = test system: P815 murine mastocytoma cells; assay: P815 graft-versus-leukemia model with in vivo imaging
Method: B6D2 mice were lethally irradiated on transplant day −1. On day 0 recipients were administered 3×10^6 TCD B6 BM cells and 2.5×10^4 luciferase^+ P815 murine mastocytoma cells (H-2^d)+/−4×10^6 B6 Tcons. Donor Tcons were incubated ex vivo with DMSO vehicle or cosalane diluted in normal saline at 15 μg/ml. The cells were then mixed with untreated BM/tumor cells and administered immediately to recipient mice by tail vein injection. Mice were then serially imaged twice weekly following the intraperitoneal injection of luciferin. […] Recipient mortality was attributed to tumor versus aGVHD based on the tumor burden by imaging and clinical aGVHD scores at the time of death. Exposure time=4 seconds for all panels. N=5 per treatment group.
B6D2 mice were lethally irradiated on transplant day −1. On day 0 recipients were administered 3×10^6 TCD B6 BM cells and 2.5×10^4 luciferase^+ P815 murine mastocytoma cells. Some recipients also received 2×10^6 DMSO treated B6 Tcons or 4×10^6 cosalane treated B6 Tcons (15 μg/ml). Mice were then serially imaged twice weekly following the intraperitoneal injection of luciferin. […] Exposure time=4 seconds for all panels. The “mixed” cage on the far right contained one mouse each of the BM/P815 only, BM/P815 plus DMSO Tcons, and BM/P815 plus cosalane Tcons groups. N=6 per treatment group.
P815 graft-versus-leukemia model and in vivo imaging: Luciferase transfected P815 murine mastocytoma cells (H-2^d) were a kind gift from the laboratory of Dr. Jonathan Serody. P815 cells were cultured and then mixed with TCD bone marrow cells prior to transplantation. A tumor dose of 2.5×10^4 P815 cells was used for all experiments. Recipients were then serially imaged using an IVIS Kinetic Optical real-time imaging system to monitor for in vivo tumor growth twice weekly. For imaging, recipients were dosed with 3 mg of D-luciferin (Perkin Elmer) by intraperitoneal injection 10 minutes prior to the procedure. Mice were then anesthetized with isoflurane during image acquisition. Unless otherwise indicated an exposure time of 4 seconds was used for all images.
As a result, we evaluated cosalane's effects on GVL immunity using a well described P815 murine mastoma (H-2^d) leukemia model. Here, B6D2 mice were lethally irradiated and then administered 3×10^6 TCD B6 bone marrow cells containing 25,000 luciferase transfected P815 cells +/−4×10^6 B6 Tcons to drive a GVL response. One half of those mice receiving BM/Tumor plus Tcons were administered Tcons incubated with DMSO and the other one half received cosalane treated Tcons. Recipients were subsequently evaluated by serial in vivo imaging in order to monitor tumor growth in each treatment group. […]

CCR7 [5] = molecular target: T2, CCR7 (Mus musculus, UniProt P47774); assay: Trans-well chemotaxis assay, primary murine T cells; assay type: cell-based
T2 construct: confirm that hits identified in the HTS were active against native CCR7; endogenous in cells; host or cells: primary naive (CD25neg) T cells from C57BL/6 mice
T2 sequence (P47774 25-378): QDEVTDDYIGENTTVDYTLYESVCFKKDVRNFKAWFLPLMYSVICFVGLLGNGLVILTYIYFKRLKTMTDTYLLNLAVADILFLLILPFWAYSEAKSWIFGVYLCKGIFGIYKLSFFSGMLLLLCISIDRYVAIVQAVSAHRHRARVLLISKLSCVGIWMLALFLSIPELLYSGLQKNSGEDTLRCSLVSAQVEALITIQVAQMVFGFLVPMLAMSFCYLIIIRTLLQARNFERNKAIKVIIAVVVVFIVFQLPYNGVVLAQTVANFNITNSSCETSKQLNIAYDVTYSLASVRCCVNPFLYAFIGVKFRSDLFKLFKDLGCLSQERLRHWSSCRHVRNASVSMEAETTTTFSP
Method: FIGS. 1A-1D show cosalane impairs CCR7 driven human and murine chemotaxis. (A, B) Chemotaxis media with or without CCL19 (A) or CCL21 (B) was added to the lower chambers of the chemotaxis device. Previously untreated H9 cells were then placed in the upper chambers of the device with or without cosalane at a concentration of 2 μM. The chamber was then placed at 37° C. for 3.5 hours and total H9 migration from each upper to lower chamber determined. (A) *P=0.048 for comparison between H9 cells/30 nM CCL19 and H9 cells/30 nM CCL19/2 μM cosalane by Student's t test. (B) P>0.05 for comparison between H9 cells/200 nM CCL21 and H9 cells/200 nM CCL21/2 μM cosalane. (C, D) Chemotaxis media with or without CCL19 (C) or CCL21 (D) was added to the lower chambers of the chemotaxis device. Previously untreated primary murine T cells were then placed in the upper chambers of the device with or without cosalane at a concentration of 2 μM. Total T cell migration from each upper to lower chamber was then determined. (C) *P=0.029. (D) *P<0.001.
While useful from a screening perspective, our primary reporter assays for the HTS were not physiologic. As a result, it was important to confirm that hits identified in the HTS were active against native CCR7 and could block an actual function mediated by the receptor. For this, we used a well-described trans-well chemotaxis assay system using human H9 cells, a cutaneous T cell lymphoma line known to express high levels of CCR7 and to migrate in response to its ligands (Ott et al., J. Pharmacol. Toxicol. Meth. 51:105 (2005)). In addition, we utilized primary mouse, naïve (CD25^neg) T cells obtained from C57BL/6 mice. As depicted in FIG. 1A, human H9 cells placed in the upper chambers of the chemotaxis device readily migrated through the separating membrane when CCL19 was present in the lower chamber. […] Similarly, murine T cell chemotaxis was also impaired by cosalane in response to both CCL19 and CCL21 (FIGS. 1C-1D).
To evaluate this possibility, human H9 cells were incubated with 10 mcg/ml (13 μM) of cosalane versus DMSO vehicle for one hour and then washed free of the compound. The cells were then placed into the chemotaxis chamber as was done in FIGS. 1A-1D. […] Similar experiments were performed with naïve primary mouse T cells.

[6] = test system: human PBMC into NSG xenogeneic aGVHD system; assay: Xenogeneic aGVHD, human PBMC into NSG mice, cells incubated ex vivo; assay type: in vivo, mouse; set-up: survival times: dose or concentration left out as unconfirmed
donor Tcon accumulation = assay: Organ eGFP quantification (donor Tcon accumulation, anti-eGFP ELISA); assay type: in vivo, mouse
[7] = 4×10^6 Tcons incubated 15 μg/ml
[8] = 4×10^6 cosalane treated Tcons vs 2×10^6 DMSO Tcons
[9] = 10 mcg/ml (13 μM), then washed, vs DMSO
[10] = day +14, Tcons incubated 15 μg/ml

## CC(C)CCC[C@@H](C)[C@H]1CC[C@H]2[C@@H]3CC[C@H]4C[C@@H](CCC=C(c5cc(Cl)c(O)c(C(=O)O)c5)c5cc(Cl)c(O)c(C(=O)O)c5)CC[C@]4(C)[C@H]3CC[C@]12C [Cosalane, cosalane]
TNF and IFN-γ
  TNF and IFN-γ levels in the host colon: significantly reduced
B6 Tcons; 10 μg/ml (13 μM) to 30 μg/ml (39 μM), one hour, washed, 72 hours anti-CD3/anti-CD28/IL-2
  Tcon cell numbers after culture: no differences in cell numbers
B6 Tcons; doses up to 39 μM
  cytotoxicity in vitro: did not induce any apparent cytotoxicity
[1]
  viral cytopathic effect induced by herpes viruses: block viral cytopathic effect
[2]; Tcons incubated 15 μg/ml
  aGVHD with CCR7-/- donor Tcons: completely inactive
[2]; Tcons incubated 30 μg/ml
  aGVHD scores with CCR7-/- donor Tcons: trend for lower aGVHD scores
  survival times with CCR7-/- donor Tcons: longer survival times
Serum albumin
  albumin avidity: high albumin avidity
Cytotoxicity (Table 1)
  Cytotoxicity: >50 (non-toxic) μM
CCR7 [3]; ligand CCL19, read-out: Human CCR7 IC50 To CCL19
  IC50: 0.207 µM
CCR7 [3]; ligand CCL21, read-out: Human CCR7 IC50 To CCL21
  IC50: 2.66 µM
[4]; [7]
  overall survival times: longest overall survival times
  tumor growth: substantial suppression of tumor growth
[4]; [8]
  mice died of aGVHD: 3/6
  mice succumbed to malignancy: none succumbed to malignancy
CCR7 [5]; 2 μM cosalane in upper chamber
  murine T cell chemotaxis in response to CCL19: impaired
  murine T cell chemotaxis in response to CCL21: impaired
CCR7 [5]; [9]
  primary murine T cell chemotaxis in response to CCL19 after pretreatment: significantly reduced
  primary murine T cell chemotaxis in response to CCL21 after pretreatment: significantly reduced
[6]; human PBMCs incubated 35 μg/ml
  survival: most recipients surviving to the end of the study period
[6]; human PBMCs incubated with cosalane
  survival times: prolonged survival times
Donor Tcon accumulation; 36 hours after transplant, Tcons incubated 15 μg/ml
  donor Tcon numbers within the spleen, ILN, and MLN: significant reduction in donor Tcon numbers
Donor Tcon accumulation; day +7, Tcons incubated 15 μg/ml
  donor Tcon accumulation in secondary lymphoid tissues and aGVHD target organs: no differences in donor Tcon accumulation
Donor Tcon accumulation; [10]
  donor Tcon accumulation within host lymphoid sites: no differences in donor Tcon accumulation
  donor Tcons within the colon and liver: significant reduction in donor Tcons
